This note sets out measurements from US20260325477A1, “METHODS OF TREATMENT USING DRY POWDER COMPOSITIONS OF TREPROSTINIL PRODRUGS” (Insmed Incorporated, priority 2024, published 2026).

Each structure is given as a SMILES string.

One data set deals with healthy adults. Nature of the data set: Phase I single-dose safety and tolerability of TPIP in healthy adults. Format: in vivo, human. As to conditions: single doses 112.5, 225, 450 and 675 μg. The procedure:
Specifically, in a Phase I safety, tolerability, and PK study, healthy adults were administered single doses of 112.5 μg, 225 μg, 450 μg, and 675 μg of a compound of Formula (II).

The nature of data set [1]: Phase I pharmacokinetics of treprostinil after inhalation of the compound of Formula (II). As to conditions: dose range of 112.5 μg to 675 μg. Format: in vivo, human. The procedure: The term “Cmax” means the maximum (or peak) treprostinil serum concentration measured after a compound of Formula (I) or (II), an enantiomer or diastereomer thereof, or a pharmaceutically acceptable salt thereof is administered to the lungs of a subject via a dry powder composition described herein. In addition, Cmax may be measured after a single administration of a compound of Formula (I) or (II), an enantiomer or diastereomer thereof, or a pharmaceutically acceptable salt thereof, described herein, or treprostinil Cmax may be measured at steady state. Unless stated otherwise, Cmax refers to the average treprostinil Cmax measured after a single administration among a population of subjects (e.g., a population of PH patients).
The term “AUC” means the area under the plasma concentration time curve for treprostinil, measured from time 0 to a certain time post-administration to the lungs of a subject, calculated by a combination of linear and logarithmic trapezoidal methods (Linear up/log down method). […] In addition, treprostinil AUC may be measured after a single administration or at steady state values. Unless stated otherwise, AUC refers to the average AUC measured after a single administration among a population of subjects (e.g., a population of PH patients). […]

The subject of data set [2] is subjects with pulmonary hypertension. Nature of the data set: Phase 2 safety and efficacy study in subjects with pulmonary hypertension. The format is in vivo, human. The procedure: In a Phase 2 safety and efficacy study, the following doses of were investigated in subjects with pulmonary hypertension, including pulmonary arterial hypertension: 80 μg, 160 μg, 240 μg, 320 μg, 400 μg, 480 μg, and 640 μg. In this study, patients were administered a starting dose of 80 μg of the TPIP and the dose was titrated up to 640 μg according to FIG. 2.

The nature of data set [3]: Nonclinical studies of TP: conversion, delivery, PK and PD. The source says: (§1) Treprostinil palmitil (TP) is a hexadecyl ester prodrug of treprostinil (TRE). In the lung, TP is hydrolyzed by esterases to TRE and hexadecanol.
A further data set has as its system rodent model of PAH. Nature of the data set: Rodent model of PAH. As to conditions: inhibition of associated adverse pathology and pathophysiology. Format: in vivo.
Description: as §1

The nature of data set [4]: Nonclinical safety and toxicology of TP. The format is in vivo.
Description: as §1

As to `CCCCCCCCCCCCCCCCOC(=O)COc1cccc2c1C[C@H]1C[C@@H](O)[C@H](CC[C@@H](O)CCCCC)[C@H]1C2` [treprostinil palmitil], in the data set with healthy adults, the safety and tolerability result is “safe and well-tolerated”; the “serious or severe TEAEs” value is “no serious or severe TEAEs were observed”. Further, the “pharmacokinetic (PK) profile, dose linearity” value in data set [1] is “linear”. For the same compound, in data set [2] (640 μg, highest dose administered in a clinical trial), the tolerability result was “well tolerated”. The tolerability result in data set [2] (all doses, 80 μg to 640 μg) is recorded as “well tolerated”. Besides, the efficacy result in data set [2] (higher doses) was “promising efficacy”. For the same compound, in data set [3], the “PK and PD profile” value was “prolonged PK and PD profile”; the “delivery of treprostinil to the lungs and systemic circulation” value is reported as “sustained delivery”. In addition, the “conversion from the prodrug to the active drug, treprostinil” value in data set [3] (in vitro and in vivo) is listed as “converted from the prodrug to the active drug, treprostinil”. Besides, the “efficacy in a rodent model of PAH” value with rodent model of PAH was “efficacious”. Moreover, the “preclinical safety or toxicological findings” value in data set [4] is “did not demonstrate concerning preclinical safety or toxicological findings”.
